Source: ChEMBL document CHEMBL5096199, “Structure-Based Optimization of Small Molecule Human Galactokinase Inhibitors” (J Med Chem, 2021)
Values after ≈ are worked out from the molar mass of the structure shown.

Legend:
Galactokinase [1] = target: T1, Galactokinase (Homo sapiens, UniProt P51570); experiment: Inhibition of recombinant human GALK1 using galactose as substrate incubated for 1 hrs in the presence of ATP by Kinase-Glo reagent based luminescence assay
[2] = Permeability of the compound at pH 7.4 measured after 30 mins by PAMPA based LC/MS analysis; type: ADME; settings: PAMPA, pH 7.4, read-out: permeability
[3] = Metabolic stability in human liver microsomes assessed as half life; type: ADME, Microsome
physchem = settings: phosphate buffer, pH 7.4
Description: Kinetic solubility of the compound in phosphate buffer at pH 7.4 at 150 uM incubated for 6 hrs by shake-flask method

[4] = AUCinfinity in CD-1 mouse at 50 mg/kg, ip measured upto 24 hrs by LC-MS/MS analysis; type: ADME, organism-based; parameters: time < 24 hrs, dose 50 mg/kg, route ip; settings: in vivo
[5] = AUCinfinity in CD-1 mouse at 30 mg/kg, po measured upto 24 hrs by LC-MS/MS analysis; type: ADME, organism-based; parameters: time < 24 hrs, dose 30 mg/kg, route po; settings: in vivo
[6] = Half life in CD-1 mouse at 30 mg/kg, po measured upto 24 hrs by LC-MS/MS analysis; type: ADME, organism-based; settings: in vivo
[7] = Oral bioavailability in CD-1 mouse at 30 mg/kg measured upto 24 hrs by LC-MS/MS analysis; type: ADME, organism-based; settings: in vivo
[8] = Drug concentration in CD-1 mouse plasma at 50 mg/kg, ip measured after 7 hrs by LC-MS/MS analysis; type: ADME, organism-based
[9] = Metabolic stability in mouse liver microsome assessed as half life; type: ADME; settings: microsomes
[10] = Tmax in CD-1 mouse at 50 mg/kg, ip measured upto 24 hrs by LC-MS/MS analysis; type: ADME, organism-based; settings: in vivo
[11] = AUClast in CD-1 mouse at 3 mg/kg, iv measured upto 24 hrs by LC-MS/MS analysis; type: ADME, organism-based; parameters: time < 24 hrs, dose 3 mg/kg, route iv; settings: in vivo
[12] = Observed volume of distribution at steady state in CD-1 mouse at 3 mg/kg, iv measured upto 24 hrs by LC-MS/MS analysis; type: ADME, organism-based; settings: in vivo, read-out: Vdss
[13] = Half life in CD-1 mouse at 50 mg/kg, ip measured upto 24 hrs by LC-MS/MS analysis; type: ADME, organism-based; settings: in vivo
[14] = AUClast in CD-1 mouse at 30 mg/kg, po measured upto 24 hrs by LC-MS/MS analysis; type: ADME, organism-based; parameters: dose 30 mg/kg, time < 24 hrs, route po; settings: in vivo
[15] = Half life in CD-1 mouse at 3 mg/kg, iv measured upto 24 hrs by LC-MS/MS analysis; type: ADME, organism-based; settings: in vivo
Galactokinase [16] = target: T1, Galactokinase; experiment: Inhibition of human GALK1 in GALT-deficient human fibroblast assessed as reduction in gal-1P level incubated for 2 to 4 hrs by cellular Gal-1P accumulation assay; type: cell-based; settings: dose 0.5-3 µM, time 2-4 hrs, DDE = dose-dependent effect
[17] = Dose normalized AUClast in CD-1 mouse at 30 mg/kg, po measured upto 24 hrs by LC-MS/MS analysis; type: ADME, organism-based; settings: in vivo
[18] = Drug concentration in CD-1 mouse plasma at 3 mg/kg, iv measured after 2 hrs by LC-MS/MS analysis; type: ADME, organism-based; settings: in vivo, BLD = below limit of detection
[19] = Plasma protein binding in CD-1 mouse; type: ADME, cell-free
[20] = Cmax in CD-1 mouse at 50 mg/kg, ip measured upto 24 hrs by LC-MS/MS analysis; type: ADME, organism-based; parameters: dose 50 mg/kg, time < 24 hrs, route ip; settings: in vivo
[21] = Dose normalized AUClast in CD-1 mouse at 50 mg/kg, ip measured upto 24 hrs by LC-MS/MS analysis; type: ADME, organism-based; settings: in vivo
[22] = Tmax in CD-1 mouse at 30 mg/kg, po measured upto 24 hrs by LC-MS/MS analysis; type: ADME, organism-based; settings: in vivo
[23] = Dose normalized AUClast in CD-1 mouse at 3 mg/kg, iv measured upto 24 hrs by LC-MS/MS analysis; type: ADME, organism-based; settings: in vivo
[24] = AUCinfinity in CD-1 mouse at 3 mg/kg, iv measured upto 24 hrs by LC-MS/MS analysis; type: ADME, organism-based; parameters: time < 24 hrs, dose 3 mg/kg, route iv; settings: in vivo
[25] = Cmax in CD-1 mouse at 30 mg/kg, po measured upto 24 hrs by LC-MS/MS analysis; type: ADME, organism-based; parameters: time < 24 hrs, dose 30 mg/kg, route po; settings: in vivo
Galactokinase [26] = target: T1, Galactokinase; experiment: Inhibition of human GALK1 in GALT-deficient human fibroblast assessed as reduction in gal-1P level at 3 uM incubated for 2 to 4 hrs by cellular Gal-1P accumulation assay relative to control; type: cell-based; settings: time 2-4 hrs
[27] = AUClast in CD-1 mouse at 50 mg/kg, ip measured upto 24 hrs by LC-MS/MS analysis; type: ADME, organism-based; parameters: time < 24 hrs, dose 50 mg/kg, route ip; settings: in vivo
[28] = C0 in CD-1 mouse at 3 mg/kg, iv measured upto 24 hrs by LC-MS/MS analysis; type: ADME, organism-based; settings: in vivo

T1 sequence (P51570 whole entry): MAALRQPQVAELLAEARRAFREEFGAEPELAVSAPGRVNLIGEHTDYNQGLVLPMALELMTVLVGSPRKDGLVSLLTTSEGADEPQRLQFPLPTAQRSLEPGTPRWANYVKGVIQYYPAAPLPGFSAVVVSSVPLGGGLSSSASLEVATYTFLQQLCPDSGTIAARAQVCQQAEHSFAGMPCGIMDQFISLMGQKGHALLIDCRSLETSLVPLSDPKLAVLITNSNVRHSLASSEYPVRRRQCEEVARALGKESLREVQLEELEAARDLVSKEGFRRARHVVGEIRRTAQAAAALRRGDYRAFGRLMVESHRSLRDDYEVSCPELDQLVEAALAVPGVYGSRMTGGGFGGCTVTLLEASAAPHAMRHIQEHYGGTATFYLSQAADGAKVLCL

`CC1=C(C(=O)Nc2cc(C(=O)O)ccn2)C(c2ccccc2Cl)N=C(Nc2nc3cc(Cl)ccc3o2)N1` (configuration not stated) showed an IC50 (Galactokinase [1]; read-out: pIC50 (converted)) of 2.63 µM.

Work on `CC1=C(C(=O)NCc2ccc(CO)cc2)C(c2ccccc2Cl)N=C(Nc2nc3ccccc3o2)N1` (configuration not stated) yielded an IC50 (Galactokinase [1]; read-out: pIC50 (converted)) of 6.61 µM.

Compound `CC1=C(C(=O)Nc2cc(C(=O)O)ccn2)C(c2ccccc2Cl)N=C(Nc2nc3c(C)cccc3o2)N1` (configuration not stated) has an IC50 (Galactokinase [1]; read-out: pIC50 (converted)) of 9.33 µM.

`CC1=C(C(=O)NCc2cnn(C)c2)C(c2ccccc2Cl)N=C(Nc2nc3ccccc3o2)N1` (configuration not stated) showed an IC50 (Galactokinase [1]; read-out: pIC50 (converted)) of 1.41 µM.

In the case of `CCn1cc(CNC(=O)C2=C(C)NC(Nc3nc4cccc(N)c4o3)=NC2c2ccc(C)cc2Cl)cn1` (racemic), the Papp at 0.5 h [2] is reported as 632 ×10⁻⁶ cm/s, the t1/2 [3] is reported as 120 min and the solubility kinetic at 6 h, 150 µM (physchem) is reported as 2.4 µg/mL (≈ 4.62 µM).

`CC1=C(C(=O)NCc2cnn(C)c2)C(c2ccc(C)cc2Cl)N=C(Nc2nc3ccc(F)c(N)c3o2)N1` (racemic) showed an AUC [4] of 80.36 µM·h, an IC50 (Galactokinase [1]; read-out: IC50) of 0.048 µM and an AUC [5] of 16.06 µM·h. It also gave a Papp at 0.5 h [2] of 485 ×10⁻⁶ cm/s, a t1/2 [6] of 136 min and an F [7] of 33%. It also gave a concentration at 7 h [8] greater than 1 µM, a t1/2 [9] of 14 min and a Tmax [10] of 79.98 min. For the same compound, the AUClast [11] was 4.66 µM·h, the Vd [12] was 0.652 L/kg and the t1/2 [13] was 102 min. For the same compound, the AUClast [14] was 15.96 µM·h, the t1/2 [15] was 24.6 min and the solubility kinetic at 6 h, 150 µM (physchem) was 1.3 µg/mL (≈ 2.49 µM). For the same compound, the inhibition (Galactokinase [16]) was “Dde”, the AUClast/dose [17] was 278 ng·h/mL/(mg/kg) and the Cp [18] was “Bld”. For the same compound, the PPB [19] was 98.74%, the Cmax [20] was 21.9 µM and the AUClast/dose [21] was 841 ng·h/mL/(mg/kg). The Tmax [22] was 40.2 min, the AUClast/dose [23] was 812 ng·h/mL/(mg/kg) and the AUC [24] was 4.81 µM·h. The Cmax [25] was 7.02 µM, the inhibition (Galactokinase [26]) was 50% and the AUClast [27] was 80.36 µM·h. For the same compound, the C0 at 24 h [28] was 8.25 µM.

In the case of `CC1=C(C(=O)NCc2cnn(C)c2)[C@@H](c2ccc(C)cc2Cl)N=C(Nc2nc3cccc(N)c3o2)N1`, the IC50 (Galactokinase [1]; read-out: pIC50 (converted)) is reported as 11.7 µM.

Work on `CC1=C(C(=O)Nc2cc(C(=O)O)ccn2)C(c2ccccc2Cl)N=C(Nc2nc3c(N)cccc3o2)N1` (configuration not stated) yielded an IC50 (Galactokinase [1]; read-out: pIC50 (converted)) of 19.5 µM.

Compound `COC(=O)c1ccc(NC(=O)C2=C(C)NC(Nc3nc4ccccc4o3)=NC2c2ccccc2Cl)cc1` (configuration not stated) has an IC50 (Galactokinase [1]; read-out: IC50) of 4.32 µM and an IC50 (Galactokinase [1]; read-out: pIC50 (converted)) of 4.47 µM.

Work on `CC1=C(C(=O)Nc2cc(C(=O)O)ccn2)C(c2ccc(F)cc2Cl)N=C(Nc2nc3ccc(F)cc3o2)N1` (configuration not stated) yielded an IC50 (Galactokinase [1]; read-out: pIC50 (converted)) of 0.891 µM.

`CCn1cc(CNC(=O)C2=C(C)NC(Nc3nc4ccc(F)c(N)c4o3)=NC2c2ccc(C)cc2Cl)cn1` (racemic) showed an IC50 (Galactokinase [1]; read-out: IC50) of 0.048 µM, a Papp at 0.5 h [2] of 410 ×10⁻⁶ cm/s and a t1/2 [9] of 14 min. The t1/2 [3] was 8 min and the solubility kinetic at 6 h, 150 µM (physchem) was less than 1 µg/mL.

Work on `CC1=C(C(=O)NCc2cccc(C(=O)O)c2)C(c2ccccc2Cl)N=C(Nc2nc3ccccc3o2)N1` (configuration not stated) yielded an IC50 (Galactokinase [1]; read-out: pIC50 (converted)) of 9.33 µM.

With `CC1=C(C(=O)Nc2cccc(F)c2)C(c2ccccc2Cl)N=C(Nc2nc3ccccc3o2)N1` (configuration not stated) the IC50 (Galactokinase [1]; read-out: pIC50 (converted)) was 6.61 µM.

`CC1=C(C(=O)Nc2nnc(C)s2)C(c2ccccc2Cl)N=C(Nc2nc3ccccc3o2)N1` (configuration not stated) gave an IC50 (Galactokinase [1]; read-out: pIC50 (converted)) of 5.25 µM.

With `COc1ccc2oc(NC3=NC(c4ccccc4Cl)C(C(=O)Nc4cc(C(=O)O)ccn4)=C(C)N3)nc2c1` (configuration not stated) the IC50 (Galactokinase [1]; read-out: pIC50 (converted)) was 6.61 µM.

`CC1=C(C(=O)Nc2cc(C(=O)O)ccn2)C(c2ccc(N3CCOCC3)cc2Cl)N=C(Nc2nc3ccc(F)cc3o2)N1` (configuration not stated) showed an IC50 (Galactokinase [1]; read-out: pIC50 (converted)) of 0.447 µM.

In the case of `COc1ccc(C2N=C(Nc3nc4ccc(F)cc4o3)NC(C)=C2C(=O)Nc2cc(C(=O)O)ccn2)c(Cl)c1` (configuration not stated), the IC50 (Galactokinase [1]; read-out: pIC50 (converted)) is reported as 0.447 µM.

In the case of `CCn1cc(CNC(=O)C2=C(C)NC(Nc3nc4ccc(F)c(N)c4o3)=N[C@H]2c2ccc(C)cc2Cl)cn1`, the IC50 (Galactokinase [1]; read-out: IC50) is reported as 0.068 µM, the Papp at 0.5 h [2] is reported as 773 ×10⁻⁶ cm/s and the t1/2 [9] is reported as 7 min. For the same compound, the t1/2 [3] was 12 min and the solubility kinetic at 6 h, 150 µM (physchem) was less than 1 µg/mL.

Compound `CC1=C(C(=O)Nc2cc(C(=O)O)ccn2)C(c2ccccc2Br)N=C(Nc2nc3ccc(F)cc3o2)N1` (configuration not stated) has an IC50 (Galactokinase [1]; read-out: pIC50 (converted)) of 0.562 µM.
